From patent US6448259B1 (dated 2002)

melting point | SMILES
330 to 332 °C | COc1ccc(NC(=O)c2c[nH]c3c(c2=O)CCC3)cc1
283 to 285 °C | O=C(NCc1ccc(Cl)cc1)c1c[nH]c2c(c1=O)CCCC2
275 to 280 °C | COc1cccc(NC(=O)c2c[nH]c3c(c2=O)CCCC3)c1
267 to 270 °C | O=C(NCc1cccc(F)c1)c1c[nH]c2c(c1=O)CCCC2
287 to 290 °C | COc1ccc(NC(=O)c2c[nH]c3c(c2=O)CCCC3)cc1
204 to 205 °C | COc1cccc(CNC(=O)c2c[nH]c3c(c2=O)CCC3)c1
206 to 208 °C | O=C(NCc1ccccc1F)c1c[nH]c2c(c1=O)CCCC2
242 to 245 °C | Cc1cccc(CNC(=O)c2c[nH]c3c(c2=O)CCCC3)c1
247 to 249 °C | O=C(NCc1cccc(Cl)c1)c1c[nH]c2c(c1=O)CCCC2
257 to 259 °C | COc1ccc(CNC(=O)c2c[nH]c3c(c2=O)CCCC3)c(F)c1
149 to 150 °C | O=C(NCc1ccccc1)c1c[nH]c2c(c1=O)CCC2
240 to 241 °C | COc1ccc(CNC(=O)c2c[nH]c3c(c2=O)CCC3)cc1
178 to 181 °C | CCOc1ccc(CNC(=O)c2c[nH]c3c(c2=O)CCCC3)c(F)c1
217 to 219 °C | COc1ccccc1CNC(=O)c1c[nH]c2c(c1=O)CCCC2
240 to 242 °C | COc1ccc(NC(=O)c2c[nH]c3c(c2=O)CCCCC3)cc1
270 to 273 °C | Cc1ccc(CNC(=O)c2c[nH]c3c(c2=O)CCCC3)cc1

melting point | SMILES
245 to 248 °C | O=C(NCc1cccs1)c1c[nH]c2c(c1=O)CCCC2
241 to 244 °C | COc1ccc(CNC(=O)c2c[nH]c3c(c2=O)CCCC3)cc1
320 °C (dec.) | COc1cccc(NC(=O)c2c[nH]c3c(c2=O)CCC3)c1
133 to 136 °C | O=C(NCc1cccc(O)c1)c1c[nH]c2c(c1=O)CCCC2
219 to 222 °C | O=C(NCc1ccc(F)cc1)c1c[nH]c2c(c1=O)CCCCC2
241 to 243 °C | CCOc1ccc(CNC(=O)c2c[nH]c3c(c2=O)CCCC3)cc1
243 to 244 °C | COc1ccccc1CNC(=O)c1c[nH]c2c(c1=O)CCC2
312 °C (dec.) | COc1ccnc(NC(=O)c2c[nH]c3c(c2=O)CCCC3)c1
224 to 226 °C | O=C(NCc1ccccc1)c1c[nH]c2c(c1=O)CCCCC2
263 to 265 °C | O=C(NCc1ccc2c(c1)OCO2)c1c[nH]c2c(c1=O)CCCC2
210 to 212 °C | COc1cccc(CNC(=O)c2c[nH]c3c(c2=O)CCCC3)c1
278 to 280 °C | O=C(NCc1ccc(F)cc1)c1c[nH]c2c(c1=O)CCCC2
324 to 326 °C | O=C(Nc1ccc(F)cc1)c1c[nH]c2c(c1=O)CCCC2
203 to 205 °C | COc1ccc(CNC(=O)c2c[nH]c3c(c2=O)CCCCC3)cc1
197 to 200 °C | CC(C)Oc1ccc(CNC(=O)c2c[nH]c3c(c2=O)CCCC3)c(F)c1
257 to 259 °C | O=C(NCc1ccccc1)c1c[nH]c2c(c1=O)CCCC2

The remaining lines, values behind:

SMILES | melting point
O=C(Nc1ccsc1)c1c[nH]c2c(c1=O)CCCC2 | 321 to 324 °C
O=C(Nc1ccccc1Cl)c1c[nH]c2c(c1=O)CCCC2 | 339 to 341 °C
O=C(Nc1nccs1)c1c[nH]c2c(c1=O)CCCCC2 | 301 °C (dec.)
Cc1csc(NC(=O)c2c[nH]c3c(c2=O)CCCC3)n1 | 350 to 352 °C
CCCCNC(=O)c1c[nH]c2c(c1=O)CCCCC2 | 138 to 143 °C
O=C(Nc1ccccc1F)c1c[nH]c2c(c1=O)CCCC2 | 241 to 244 °C
O=C(Nc1c(F)cccc1F)c1c[nH]c2c(c1=O)CCC2 | 297 °C (dec.)
O=C(Nc1nccs1)c1c[nH]c2c(c1=O)CCC2 | 305 °C (dec.)
O=C(Nc1cccc(F)c1)c1c[nH]c2c(c1=O)CCCC2 | 319 to 320 °C
O=C(Nc1c(F)cccc1F)c1c[nH]c2c(c1=O)CCCC2 | 278 to 280 °C
O=C(Nc1ccccc1F)c1c[nH]c2c(c1=O)CCC2 | 330 °C (dec.)
O=C(NCc1c(F)cccc1F)c1c[nH]c2c(c1=O)CCC2 | 294 to 295 °C
CCOc1ccc(CNC(=O)c2c[nH]c3c(c2=O)CCC3)c(F)c1 | 217 to 219 °C
O=C(Nc1cccs1)c1c[nH]c2c(c1=O)CCCC2 | 306 °C (dec.)
O=C(Nc1ccc(OCCO)cc1)c1c[nH]c2c(c1=O)CCC2 | 220 to 222 °C
O=C(Nc1ccccn1)c1c[nH]c2c(c1=O)CCC2 | 294 to 295 °C
O=C(Nc1ccc(F)cc1F)c1c[nH]c2c(c1=O)CCC2 | 328 °C (dec.)
Cc1csc(NC(=O)c2c[nH]c3c(c2=O)CCC3)n1 | 304 to 305 °C
O=C(Nc1cccc(F)c1)c1c[nH]c2c(c1=O)CCC2 | 340 °C (dec.)
O=C(Nc1ccccc1)c1c[nH]c2c(c1=O)CCCC2 | 299 to 300 °C
O=C(Nc1cccnc1)c1c[nH]c2c(c1=O)CCCC2 | 308 °C (dec.)
O=C(Nc1nccs1)c1c[nH]c2c(c1=O)CCCC2 | 260 °C (dec.)
O=C(Nc1cccs1)c1c[nH]c2c(c1=O)CCC2 | 210 °C (dec.)
CCCOc1ccc(CNC(=O)c2c[nH]c3c(c2=O)CCC3)c(F)c1 | 209 to 211 °C
O=C(NCc1ccccc1F)c1c[nH]c2c(c1=O)CCC2 | 259 to 261 °C
CC(C)Oc1ccc(CNC(=O)c2c[nH]c3c(c2=O)CCC3)c(F)c1 | 214 °C (dec.)
O=C(Nc1ccccc1)c1c[nH]c2c(c1=O)CCC2 | 295 to 296 °C
